From patent US20060084599A1, “Compositions, methods and kits relating to notch signaling” (Maine Medical Center, priority 2003, published 2006)
Marks after values point to notes of the source that are not given here.

Columns and labels:
[1] = tested on: NIH 3T3 cell transfectants; assay: Anchorage-dependent cell growth assay; assay type: cell-based, mouse; conditions: stable NIH 3T3 cell transfectants, 10% BCS
Procedure: Anchorage-Dependent and -Independent Cell Growth Assays. Approximately 3×10^4 cells were plated on fibronectin (10 μg/cm^2)-coated in 12-well cell culture dishes (Falcon) in DMEM containing 10% BCS (v/v) (Hyclone). Three wells of the individual NIH 3T3 cell transfectants were harvested every third day and cell number was quantitated using a hemocytometer. Anchorage-independent cell growth was evaluated by plating in duplicate approximately 1.7×10^3 cells in DMEM containing 0.5% (w/v) agar (Sigma) 10% (v/v) BCS into 5 cm plastic dishes (Falcon) as previously described (Small et al., 2003, J. Biol. Chem. 278:16405-16413).

CBF1-responsive promoter = assay: Dual luciferase assay of CSL-dependent transcription (Example 3); assay type: cell-based, mouse; conditions: NIH 3T3 cells and N1IC NIH 3T3 cells expressing the ligand
Procedure: Dual Luciferase Assay. CSL-dependent transcription was quantitated as previously described (Small et al., 2001, J. Biol. Chem. 276:32022-32030; Small et al., 2003, J. Biol. Chem. 278:16405-16413). Briefly, approximately 5×10^4 cells representing insert-less vector control, sDl1, sJ1, dominant-negative Notch1 (dnN1), dominant-negative Notch2 (dnN2) (Small et al., 2001, J. Biol. Chem. 276:32022-32030), sDl1/dnSrc and sJ1/dnSrc stable NIH 3T3 cell transfectants were plated on 12-well plastic plates (Falcon) coated with fibronectin (10 μg/cm^2). The cells were transiently transfected at 60% confluence with 500 ng of the CBF1-responsive Luciferase construct (Small et al., 2001, J. Biol. Chem. 276:32022-32030) and 100 ng of a Renilla SV40 construct (Promega) which was utilized as an internal control for transfection efficiency. Gene Juice (Novagen) was used as a transfection reagent. Some of the samples also contained 200 ng of a DNA construct encoding the truncated intracellular constitutively active form of Notch1 (N1IC) (Small et al., 2001, J. Biol. Chem. 276:32022-32030). […] Individual assays were performed in triplicate and the Luciferase/Renilla activity was measured using Dual-Luciferase Reporter Assay System (Promega) 48 hrs following the transient transfection.

[2] = tested on: FGF gene family transcripts; assay: RT-PCR of FGF gene family expression; assay type: cell-based, murine; conditions: stable NIH 3T3 cell transfectants expressing the ligand
Procedure: Total RNA from vector control, sJ1, caN1 and dnN1 stable transfectants was isolated using Tri Reagent™ (Sigma) according to the manufacturer's protocol. cDNA was obtained from 5 μg total RNA with SuperScript™ (Invitrogen) reverse transcriptase using an oligo dT primer (Invitrogen). The following specific primers were purchased from IDT and used for RT-PCR analysis. Sense primers are indicated by (s); Antisense primers are indicated by (as): […]
PCR amplification was performed for 45 cycles as follows: 40 seconds at 94° C., 40 seconds at 50° C. (for FGF2, FGF3, FGF4 and FGFR3) or at 55° C. (for FGF6, FGF7, FGF8, FGF9, FGF10, FGFR1 and FGFR2), 1 minute at 72° C. For FGF5, RT-PCR analysis was performed as described (Ozawa et al., 1998, J. Biol. Chem. 273: 29262-29271) and all amplified DNA was visualized with ethidium bromide on 1.5% agarose gels.

NCSC populations = assay: Clonogenic differentiation assay of NCSC: ligand pre-incubation, then BMP2 challenge; assay type: cell-based, mouse; conditions: then 1 ng/ml BMP2 seven days, mean ± SD
Procedure: Clonogenic assays were performed as described (Stemple et al., 1992, Cell 71:973-985). Briefly, populations of murine NCSC were plated at a clonal density and maintained for a maximum of 14 days in Morrison media supplemented with 15% chick embryo extract (Morrison et al., 1999, Cell 96:737-749). The resulting clones were fixed in an acetic acid:ethanol solution (2:1) and stained with antibodies against peripherin (Chemicon) to detect neurons, smooth muscle actin (Sigma) to detect myofibroblasts, and GFAP (Chemicon) to detect Schwann cells. Clones were scored based on the appearance of just one phenotypic representative. The number and percentage of clones containing neurons only (N), Schwann cells only (S), myofibroblasts only (M), N+S, N+M, N+S+M, and S+M were scored at day 14 unless otherwise stated. The production of each representative phenotype in each individual clone was also scored to complement the clonal population assay.
NCSC Retain Neurogenic capacity in the presence of sJ1. A clonogenic differentiation assay was performed using mouse NSCS populations as described previously (Kubu et al., 2002, Dev. Biol. 244:199-214; Stemple et al., 1992, Cell 71:973-985). The cells were incubated in Stemple media (Stemple et al., 1992) with or without 5 nM sDl1 or 7.5 nM sJ1 for the time periods set forth in Table 1. After the initial incubation period, cells were washed and neuronal differentiation was challenged in the presence of 1 ng/ml BMP2 for an additional seven days. The resulting clones were fixed and stained for detection of neural crest markers. The data disclosed in Table 1 is presented as the percentage of glial-only, neuron-only, and neuron colonies containing either smooth muscle or glial markers as the mean ± standard deviation (SD) of three experiments originating from three independent cell isolations. Note the retention of neurogenic differentiation capacity in sJ1-treated cells (*=p<0.01) compared with the sDl1-treated cells.

[3] = 5 nM sDl1 or 7.5 nM sJ1 for 24 hrs

Row | Molecule | growth kinetics at high cell density [1] | transactivation of the CBF1-responsive promoter (CBF1-responsive promoter) | FGF gene family mRNA expression in transfectants [2] | Glial-Only colonies (NCSC populations; [3]) | Neuron-Containing colonies (NCSC populations; [3]) | Neuron-Only colonies (NCSC populations; [3]) | Glial-Only colonies (NCSC populations; 7.5 nM sJ1 for 72 hrs) | Neuron-Containing colonies (NCSC populations; 7.5 nM sJ1 for 72 hrs) | Neuron-Only colonies (NCSC populations; 7.5 nM sJ1 for 72 hrs) | Glial-Only colonies (NCSC populations; 7.5 nM sJ1 for 120 hrs) | Neuron-Containing colonies (NCSC populations; 7.5 nM sJ1 for 120 hrs) | Neuron-Only colonies (NCSC populations; 7.5 nM sJ1 for 120 hrs) | Glial-Only colonies (NCSC populations; 7.5 nM sJ1 for 168 hrs) | Neuron-Containing colonies (NCSC populations; 7.5 nM sJ1 for 168 hrs) | Neuron-Only colonies (NCSC populations; 7.5 nM sJ1 for 168 hrs)
1 | sJ1: Soluble Jagged1, amino acid residues about 1 to 1067 (SEQ ID NO:3) of full-length human Jagged1 | impaired contact inhibition of growth | inhibited the transactivation of the CBF1-responsive promoter | expression of mRNAs encoding FGF1, FGF3, FGF4, and FGF5 | 0% | 71.4 ± 6.2%* | 54.4 ± 8.4%* | 0.8 ± 1.4%* | 74.8 ± 16.3%* | 42.8 ± 6.6%* | 5.82 ± 3.4%* | 52.01 ± 14.1%* | 13.43 ± 6.5%* | 13.3 ± 4.5%* | 35.03 ± 9.1% | 6.5 ± 1.3%*
2 | sDl1: soluble non-transmembrane form (extracellular domain) of the Notch ligand Delta1 (protein, left off: small tags and cut ends, soluble non-transmembrane form (extracellular domain) of the Notch ligand Delta1) QVWSSGVFELKLQEFVNKKGLLGNRNCCRGGAGPPPCACRTFFRVCLKHYQASVSPEPPCTYGSAVTPVLGVDSFSLPDGGGADSAFSNPIRFPFGFTWPGTFSLIIEALHTDSPDDLATENPERLISRLATQRHLTVGEEWSQDLHSSGRTDLKYSYRFVCDEHYYGEGCSVFCRPRDDAFGHFTCGERGEKVCNPGWKGPYCTEPICLPGCDEQHGFCDKPGECKCRVGWQGRYCDECIRYPGCLHGTCQQPWQCNCQEGWGGLFCNQDLNYCTHHKPCKNGATCTNTGQGSYTCSCRPGYTGATCELGIDECDPSPCKNGGSCTDLENSYSCTCPPGFYGKICELSAMTCADGPCFNGGRCSDSPDGGYSCRCPVGYSGFNCEKKIDYCSSSPCSNGAKCVDLGDAYLCRCQAGFSGRHCDDNVDDCASSPCANGGTCRDGVNDFSCTCPPGYTGRNCSAPVSRCEHAPCHNGATCHERGHRYVCECARGYGGPNCQFLLPELPPGPAVVDLTEKLEGQGGPFPW | impaired contact inhibition of growth | inhibited the transactivation of the CBF1-responsive promoter | express the FGF3, FGF4 and FGF9 transcripts | 57.8 ± 9.9% | 7.0 ± 5.7% | 0% |  |  |  |  |  |  |  |  | 
